The test system of experiment [1] is ryr1b homozygous mutant zebrafish. The class given is in vivo, zebrafish (Danio rerio). The protocol:
In two independent experiments, two pools of 20 larvae from heterozygous ryr1b matings were treated with DMSO or with one of three different concentrations of NIF (1.0-100.0 μg/mL) at 1 dpf and evaluated in terms of touch-evoked escape behaviors at 5 dpf (n=40). Following phenotypic scoring, all living embryos were genotyped using three-primer genomic PCR. Swimming scores for larvae genotype-confirmed as ryr1b homozygous mutants are shown as a percentage of the total number of living larvae in each dose category: 1=poor swimming; 2 or 3=moderate or wild-type swimming. NIF improved mobility of ryr1b mutants at a dose of 10 μg/mL. […] Phospho-Stat3 band intensities were normalized to β-Actin control bands and quantified in Image J (NIH).
FIGS. 12A-12C show a ketoprofen dose-response and proposed mechanistic link. […] FIG. 12B is a dose-response graph for ketoprofen (KETO). Two pools of 20 larvae from heterozygous ryr1b matings were treated with DMSO or four different concentrations of KETO (1.0-100.0 μg/mL) at 1 dpf and evaluated in terms of touch-evoked escape behaviors at 5 dpf (n=40). Following phenotypic scoring, all living embryos were genotyped using three-primer genomic PCR. Swimming scores for larvae genotype-confirmed as ryr1b homozygous mutants are shown as a percentage of the total number of living larvae in each dose category: 1=poor swimming, 2 or 3=moderate or wild-type swimming. […] Phosphorylated STATs form dimers, translocate to nuclei, and from there are associated with various transcriptional activities. Dubowitz, V. and Sewry, C. (2006) Muscle Biopsy: A Practical Approach. Elsevier-Health Sciences Division.
The relatively relaxed zebrafish was initially identified due to a spontaneous autosomal recessive mutation within the ryr1b gene^30. Specifically, ryr1b mutants carry a 4046 base pair (bp) DNA insertion in the intron between exons 48 and 49 that includes an additional 32 bp sequence found in mutant cDNA (FIG. 3)^30. Genotypes of individual embryos were examined using three-primer genomic PCR, with an expected wild-type band of 1,668 bp and a mutant band of 653 bp. Primer sequences were as follows: ryr1b #1 (forward): 5′-[…]-3′ (SEQ ID NO: 4); ryr1b #2 (reverse): 5′-[…]-3′ (SEQ ID NO: 5); and ryr1b #3 (reverse): 5′-[…]-3′ (SEQ ID NO: 6).
The primary and secondary screens only tested chemical pools and individual compounds at a single concentration (2.0 μg/mL). Although beneficial in a high-throughput context, this approach can result in false positives and false negatives. […] For analysis, pools of 20 larvae obtained from heterozygous ryr1b matings were treated in duplicate with DMSO or with one of three different concentrations of NIF (1.0-100.0 μg/mL) at 1 dpf and scored for touch-evoked escape behaviors at 5 dpf. All scored larvae were then genotyped using three-primer genomic PCR. […] Next, hit expansion was used to verify JAK-STAT as a potential molecular pathway involved in ryr1b mutant pathology. […] A higher effective dose for 5,15-DPP was consistent with the IC50 measurements reported for each compound^40,41.

A further experiment relates to wild-type mouse myotubes. Briefly: Calcium imaging, caffeine dose response of depolarization-induced calcium release. In kind it is cell-based, mouse (C57BL/6N). Particulars: wild-type background, cultured 5 days with compound. The protocol:
Tetanic forces were measured following stimulation with 9 biphasic, 200 μs square-wave pulses at 300 Hz (WT-DMSO: 45.6±4.2 kPa, n=5; WT-NIF: 52.8±4.1 kPa, n=5; ryr1b-DMSO: 11.4±1.3 kPa, n=7; ryr1b-NIF: 25.4±4.0 kPa, n=7). Significance was determined by a one-way ANOVA (F=29.61, P<0.0001), followed by pairwise Tukey's HSD post hoc tests. […] Non-linear regression data of curves were not statistically different, as determined by an extra sum-of-squares F test (P=1.0).
Primary myoblasts from C57BL/6N mice were isolated and differentiated as described previously^39. Calcium imaging was performed 5 days after differentiation in myotubes loaded with 3 μM Fluo-4-AM (Life Technologies). Myotubes were imaged in imaging buffer (125 mM NaCl, 5 mM KCl, 2 mM CaCl2, 1.2 mM MgSO4, 6 mM glucose, 2 mM Ca^2+, 25 mM Hepes/Tris, pH 7.4) at 490-500 nm with a Stanford Photonics 10 bit digital intensified CCD using a DG4 multi-wavelength light source. Fluorescent emission at 510 was acquired and analyzed using QED Imaging software (QED Software, Pittsburgh, Pa., USA) from regions of interest within each myotube at 30 frames per second. Sensitivity to K^+-depolarization and caffeine-activation were determined by a 5 second perfusion with 5-6 volumes of KCl (10 mM to 60 mM) or caffeine (3 mM to 40 mM). […]

From patent publication US10973912B2, “Treatment for myopathy” (Children's Medical Center Corporation, priority 2015, dated 2021) come the findings set out here.

With `O=C(N/N=C/c1ccc([N+](=O)[O-])o1)c1ccc(O)cc1` [Nifuroxazide], the “dose that improved mobility of ryr1b mutants / optimal activity” value in experiment [1] (treated at 1 dpf, touch-evoked escape behaviors at 5 dpf, tested 1.0-100.0 μg/mL) came to 10 µg/mL. For the same molecule, the “touch-evoked escape behaviors / mobility of ryr1b mutants” value in experiment [1] (treated from 1 dpf, scored and genotyped at 5 dpf) is listed as “ryr1b mutants were among larvae that exhibited wild-type touch-evoked escape behaviors”. For the same molecule, the “calcium release in response to caffeine” value in the experiment with wild-type mouse myotubes is recorded as “only very modest increases in calcium release”.
